Where no end group is shown, it is not given here. rhodamine = not defined here
Experiments:
PKA [1] = test: FRET report of phosphorylation of labeled peptides by PKA; type: biochemical; conditions: Zip4SF with Zip4SR, ATP present
Method: Donor and acceptor fluorophore-labeled polypeptides comprising coiled-coils (molar equivalents of fluorophore-labeled polypeptide or molar excess of acceptor-labeled polypeptide) are first mixed (if the two coiled-coils are present on separate polypeptides). Samples are analyzed in a fluorimeter using excitation wavelengths relevant to the donor fluorescent moiety and emission wavelengths relevant to both the donor and acceptor moieties. […] Typically, measurements are performed at 0–37° C. as a function of time following the addition of the modifying enzyme (and, optionally, a modulator or candidate modulator of function for that enzyme, as described below) to the system in 50 mM histidine pH 7.0, 120 mM KCl, 5 mM MgSO4, 5 mM NaF, 0.05 mM EGTA and 0.2 mM ATP. The assay may be performed at a higher temperature if that temperature is compatible with the enzyme(s) under study.
(§1) Fluorescence was used to report on the phosphorylation status of these peptides (FIG. 13). […] No loss of FRET was observed on addition of PKA in the absence of ATP (data not shown).
Calculation of the ratio of fluorescence output is important, particularly for in vivo applications, thereby avoiding error due to high local concentrations of reporter in the system and enhancing the ability to observe meaningful change.

partner peptide = test: FRET between fluorescein- and rhodamine-labeled coiled-coil peptides (association); type: binding; conditions: emission at 516 nm
Method: Peptides were then labeled using a method adapted from one known in the art (Hermanson, 1997, Bioconjugate Techniques, Academic Press). 20 mM fluorescein iodoacetamide (FAM) in DMSO and 0.23 mM peptide in 20 mM TES buffer, pH 7.0 were prepared. These were mixed in a molar ratio of 0.9:1 (peptide:label) and incubated at 4° C. in the dark for a minimum of 2 hours. Initially, this method was also applied to labelling with rhodamine maleimide at a ratio of 0.9:2; however, in other experiments, good labelling has been obtained using rhodamine iodoacetamide at a ratio of 0.9:1. Labelling was assessed by reverse phase HPLC (C18 column; solvent A: H2O/0.1% TFA; solvent B: acetonitrile/0.1% TFA) and MALDI-TOF mass spectrometry.
This was accompanied by an increase in fluorescence detected in the rhodamine emission region (not shown).
as §1

[2] = Circular dichroism spectra and thermal denaturation of coiled-coil peptides; type: physicochemical
Method: The circular dichroism (measured in units of ellipticity) of proteins at 222 nm provides a measure of the amount of α-helix present in the structure, with a large, negative ellipticity indicting a high level of helicity. The coiled-coil has a distinctive α-helical CD spectrum with minima at 222 nm and 208 nm (O'Shea et al., 1989, Science, 243: 538–542). […] In all experiments described herein, peptide concentration was determined by tyrosine absorbance at 280 nm in 6M GuHCl. […] It is clear that this leucine zipper peptide began to unfold at around 35° C. and was completely unfolded by 70° C.
As in Example 1, circular dichroism was used to assess the coiled-coil structure of the Zip4 polypeptides and the disruption of that structure by phosphorylation. […] This was confirmed by the CD spectra of Zip4S and Zip4SP at 1° C. (FIG. 12).
The coiled-coil motif has a characteristic CD spectrum. As described above, measurement of circular dichroism is useful to distinguish monomeric polypeptides from oligomers and to assess the stability of the structure present, although the technique cannot give information regarding the number of monomers making up the coiled-coil structure. […] Importantly, these peptides shown only have 4.5 leucine zipper heptads, and the incomplete nature of the final heptad is likely to compromise the stability of the coiled-coil structure.

PKA [3] = test: Timecourse of phosphorylation of peptides by PKA (32P-ATP); type: biochemical; conditions: 0.2 mM ATP, pH 7.0
Method: Peptides (0.01–1.0 μM) are phosphorylated by purified c-PKA in 50 mM Histidine buffer pH 7.0, 5 mM MgSO4, 1 mM EGTA, 0.1–1.0 μM c-PKA, and 0.2 mM [^32P] γ-ATP (specific activity ˜2Bq/pmol) at 30–37° C. for periods of time ranging from 0 to 60 minutes. Where the chemistry of the peptide is appropriate (i.e. having a basic charge) the phosphopeptide is captured on a cation exchange filter paper (e.g. phosphocellulose P81 paper; Whatman), and reactants are removed by extensive washing in 1% phosphoric acid (see Casnellie, 1991, Methods Enzymol., 200: 115–120). Alternatively, phosphorylation of samples is terminated by the addition of SDS-sample buffer (Laemmli, 1970, Nature, 227: 680–685) and the samples analysed by SDS-PAGE electrophoresis, autoradiography and scintillation counting of gel pieces.
A timecourse of phosphorylation of these peptides by PKA was run in 50 mM histidine/HCl (pH 7.0), 5 mM MgSO4, 5 mM NaF, 0.05 mM EGTA, 120 mM KCl with 0.2 mM ATP (30.9 cpm/pmol ^32P-ATP) and 0.5 μM PKA. […] Zip4T is also phosphorylated, but at a slower rate, with full phosphorylation achieved in 30 minutes in this assay. In this assay, the difference in cpm recovered between the Zip4 peptides and PL919Y was due to the difference in recovery of these peptides on P81 paper; however, a plateau was taken to indicate full phosphorylation.
(§2) A second set of timecourses of phosphorylation was performed on Zip4S using PKA and Ca^2+/Calmodulin-dependent Protein Kinase (CaMKII), together with positive and negative controls for CaMKII (used to confirm that the crude preparation of CaMKII had the expected characteristics of that enzyme). PKA phosphorylation was performed in 50 mM histidine/HCl (pH 7.0), 5 mM MgSO4, 5 mM NaF, 0.05 mM EGTA, 120 mM KCl with 0.2 mM ATP (39.72 cpm/pmol ^32P-ATP) and 0.25 μM PKA. CaMKII phosphorylation was performed in 50 mM histidine/HCl (pH 7.0), 5 mM MgSO4, 5 mM NaF, 120 mM KCl, 0.5 mM Ca^2+, 0.037 mg/ml calmodulin with 0.2 mM ATP (39.72 cpm/pmol ^32P-ATP) and 10% crude CaMKII. In the Ca^2+-free experiment, Ca^2+ was replaced by 0.05 mM EGTA. […] Such specificity of a modification site included in a polypeptide comprising a coiled-coil is critical for use of the invention in an intracellular environment.

[4] = test system: Ca2+/Calmodulin-dependent Protein Kinase (CaMKII); test: Timecourse of phosphorylation by CaMKII (32P-ATP); type: biochemical; conditions: 10% crude CaMKII, 0.5 mM Ca2+, 0.2 mM ATP
Method: as §2

Zip4SF = biological target: T1, Zip4SF (not fully specified; fluorescent donor label (fluorescein, by analogy with Zip3F) on the single Cys); test: FRET, emission spectra
T1 peptide: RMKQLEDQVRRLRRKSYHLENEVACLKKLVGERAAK

[5] = biological target: the molecule itself; test: circular dichroism, self-association

Zip4SF: Zip4S labeled with fluorescein (FRET donor) (RMKQLEDQVRRLRRKSYHLENEVACLKKLVGERAAK; also: labeled with fluorescein (site not given here))
emission at 516 nm on addition of PKA (loss of FRET) (PKA [1]): returned to above the level produced by Zip4SF alone
FRET upon addition of Zip4SR (partner peptide): loss of emission at 516 nm

R MKQLEDQ VRRLRRK TYHLENE VACLKKL VGERAAK (RMKQLEDQVRRLRRKTYHLENEVACLKKLVGERAAK) [Zip4T, 29]
relative thermostability (thermal denaturation by CD) ([2]; same conditions as Zip3): more stable than was Zip4S
phosphorylation by PKA (substrate quality, rate) (PKA [3]; 0.5 μM PKA): slower rate
time to full phosphorylation by PKA (PKA [3]; 0.5 μM PKA): 30 min

Zip4SP: enzymatically phosphorylated Zip4S (RMKQLEDQVRRLRRKSYHLENEVACLKKLVGERAAK; also: enzymatically phosphorylated (site not given here))
folding state in thermal melting/denaturation (ellipticity at 222 nm) ([2]; from starting temperature of 1° C.): unfolded polypeptide in solution

R MKQLEDQ VRRLRRK SYHLENE VACLKKL VGERAAK (RMKQLEDQVRRLRRKSYHLENEVACLKKLVGERAAK) [Zip4S, 28]
phosphorylation by CaMKII [4]: unable to phosphorylate
phosphorylation by PKA (extent) (PKA [3]; 0.25 μM PKA): complete phosphorylation
phosphorylation by PKA (substrate quality, rate) (PKA [3]; 0.5 μM PKA): good substrate

B1: Zip4SR (peptide)
peptide: RMKQLEDQVRRLRRKSYHLENEVAC(rhodamine)LKKLVGERAAK
modifications: reading uncertain
notes: the labelling of Zip4S itself is not spelled out
binding result (Zip4SF): binds

B2: Zip 1 (peptide)
peptide: HMKQLEDKVEELLSKNYCLENEVRRLRRASFSLQ
notes: Initial unsuccessful reporter peptide
binding result [5]: binds

B3: Zip 2 (peptide)
peptide: RRIRRASIDKVEELKSKNYCLENEVARLKKLVGER
notes: Initial unsuccessful reporter peptide; also called Zip2s
binding result [5]: binds

From patent US7105307B2, “Compositions and methods for screening for modulators of enzymatic activity” (Cyclacel, Ltd., priority 1997, dated 2006)
